Test results taken from ChEMBL document CHEMBL1130591, “P2-proline-derived inhibitors of calpain I” (Bioorg Med Chem Lett, 1998).
Non-standard residues stand in square brackets, D forms with d. Residues, ends and D or L forms follow the SMILES beside them. *: point of attachment. Tos = Cc1ccc(S(=O)(=O)*)cc1; Ms = CS(=O)(=O)*

Tests used:
[1] = target: Chymotrypsinogen A (Bos taurus) (UniProt P00766); test: Compound was tested for inhibitory activity against alpha-chymotrypsin at concentration of 10 uM.
Cathepsin B = Cathepsin B (Homo sapiens, UniProt P07858); test: Compound was tested for inhibitory activity against Cathepsin B.
[2] = target: T1, Calpain-1 catalytic subunit (Homo sapiens) (UniProt P07384); test: Compound was tested for inhibitory activity against recombinant human Calpain 1 at concentration of 1 uM
T1 sequence (whole entry): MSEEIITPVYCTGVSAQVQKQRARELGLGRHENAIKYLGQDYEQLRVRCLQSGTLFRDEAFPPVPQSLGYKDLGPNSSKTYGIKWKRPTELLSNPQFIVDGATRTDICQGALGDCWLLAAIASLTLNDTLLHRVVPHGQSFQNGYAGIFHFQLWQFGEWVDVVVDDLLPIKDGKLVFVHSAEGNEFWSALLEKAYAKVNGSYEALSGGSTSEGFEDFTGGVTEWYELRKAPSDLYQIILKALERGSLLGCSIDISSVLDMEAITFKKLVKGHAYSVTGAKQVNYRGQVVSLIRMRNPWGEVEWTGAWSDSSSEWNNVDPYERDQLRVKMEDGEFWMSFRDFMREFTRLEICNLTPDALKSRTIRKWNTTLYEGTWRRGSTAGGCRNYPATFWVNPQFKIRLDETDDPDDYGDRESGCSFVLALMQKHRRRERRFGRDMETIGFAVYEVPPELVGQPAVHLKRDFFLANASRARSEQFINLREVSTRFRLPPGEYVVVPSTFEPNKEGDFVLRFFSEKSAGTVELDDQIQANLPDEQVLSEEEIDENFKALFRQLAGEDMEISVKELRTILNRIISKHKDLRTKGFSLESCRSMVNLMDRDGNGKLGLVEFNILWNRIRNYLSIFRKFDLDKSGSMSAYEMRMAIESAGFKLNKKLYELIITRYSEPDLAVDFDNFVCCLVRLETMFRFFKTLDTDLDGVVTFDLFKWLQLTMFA

[3] = target: T2, Calpain-1 catalytic subunit (Homo sapiens, UniProt P07384); test: Compound was tested for inhibitory activity against recombinant human Calpain 1
T2 sequence (P07384 whole entry): T1 sequence (whole entry)

[4] = target: Chymotrypsinogen A (Bos taurus) (UniProt P00766); test: Compound was tested for inhibitory activity against alpha-chymotrypsin at concentration of 1 uM.

IC50 (Cathepsin B) [nM] | IC50 [3] [nM] | SMILES | other results
> 10000 |  | Cc1ccc(S(=O)(=O)N2C[C@H](N=[N+]=[N-])CC2C(=O)N[C@H](C=O)Cc2ccccc2)cc1 (single isomer, unassigned) | inhibition [1]: 9%
 |  | Cc1ccc(S(=O)(=O)O[C@@H]2C[C@H](C(=O)N[C@H](C=O)Cc3ccccc3)N(S(=O)(=O)c3ccccc3)C2)cc1 | inhibition [2]: 48%
 |  | Cc1ccc(S(=O)(=O)O[C@H]2C[C@H](C(=O)N[C@H](C=O)Cc3ccccc3)N(S(=O)(=O)c3ccc(C)cc3)C2)cc1 | inhibition [2]: 74%
3600 |  | Cc1ccc(S(=O)(=O)N2CCC[C@@H]2C(=O)N[C@H](C=O)Cc2ccccc2)cc1 (Tos-[dP]-Phe-aldehyde) | inhibition [1]: 12%
 | 125 | O=C[C@H](Cc1ccccc1)NC(=O)[C@@H]1C[C@@H](OCc2ccccc2)CN1S(=O)(=O)c1ccccc1 | 
 |  | O=C[C@H](Cc1ccccc1)NC(=O)[C@H]1C[C@H](OS(=O)(=O)c2ccccc2)CN1S(=O)(=O)c1ccccc1 | inhibition [4]: 42%
38 | 13 | O=C[C@H](Cc1ccccc1)NC(=O)[C@@H]1C[C@@H](OS(=O)(=O)c2ccccc2)CN1S(=O)(=O)c1ccccc1 | 
 | 100 | Cc1ccc(S(=O)(=O)N2C[C@H](NC(=O)C(F)(F)F)CC2C(=O)N[C@H](C=O)Cc2ccccc2)cc1 (single isomer, unassigned) | 
8700 | 28 | Cc1ccc(S(=O)(=O)N2C[C@H](C#N)CC2C(=O)N[C@H](C=O)Cc2ccccc2)cc1 (single isomer, unassigned) | inhibition [1]: 6%
883 | 45 | CS(=O)(=O)N1CCC[C@H]1C(=O)N[C@H](C=O)Cc1ccccc1 (Ms-Pro-Phe-aldehyde) | 
 |  | Cc1ccc(S(=O)(=O)N2C[C@H](NS(C)(=O)=O)CC2C(=O)N[C@H](C=O)Cc2ccccc2)cc1 (single isomer, unassigned) | inhibition [2]: 40%
3000 |  | CS(=O)(=O)N1CCC[C@@H]1C(=O)N[C@H](C=O)Cc1ccccc1 (Ms-[dP]-Phe-aldehyde) | inhibition [1]: 2%
1400 | 41 | O=C[C@H](Cc1ccccc1)NC(=O)[C@@H]1CCCN1S(=O)(=O)c1ccccc1 | 
 |  | Cc1ccc(S(=O)(=O)N2C[C@@H](OS(C)(=O)=O)C[C@@H]2C(=O)N[C@H](C=O)Cc2ccccc2)cc1 | inhibition [2]: 79%
